Read-outs that look alike come from different tables or passages of the source.
Key:
[1] = tested on: hemodynamics of anesthetised cats; experiment: effects on hemodynamics of anesthetised cats (Table 1); format: in vivo, cat
Method: The experiments were performed on male and female (2.9-3.8 kg) anaesthetized cats (urethane 200 mg/kg and chloralose 50 mg/kg, both i.p.).
The chest was opened in the experimental animals, which were artificially respirated, and blood pressure in the carotid artery as well as general aorta blood flow were measured on physiograph DMP-46 "Narco Bio-Systems" USA.

[2] = tested on: CaCl2-induced lethal arrhythmias in mice; experiment: CaCl2-induced lethal arrhythmias in mice (Table 4); format: in vivo, albino mice; conditions: for Survive (number of animals): 10 observations
Method: This experiment was performed on male and female conscious albino mice (19-26 g) administering to their tail vein a 2% (by weight) calcium chloride solution, animal protection against lethal arrhythmia being used as an effect criterion (Table 4).

[3] = tested on: CaCl2-induced lethal arrhythmias in rats; experiment: CaCl2-induced lethal arrhythmias in rats (Table 5); format: in vivo, albino rats; conditions: for Survive (number of animals) / Survive (percent): 5 observations
Method: These experiments were performed on male and female albino rats (190 to 230 g) anesthetized with urethane ([…], i.p.), and after 2% calcium chloride solution administration to animal foot vein ECG was registered in II standard lead.

[4] = tested on: isolated rabbit ear blood vessel; experiment: adrenaline-induced isolated rabbit ear blood vessel spasms (Table 2); conditions: for Perfusion pressure, final data, max / Perfusion pressure, final data, min: after adrenaline 3.10^-7 M addition
[5] = tested on: rabbit ear blood vessel; experiment: adrenaline-induced rabbit ear blood vessel spasm in the presence of L-nitro-arginine (Table 3); conditions: adrenaline 3.10^-7 M and L-NO2-Arg 10 mg/l
[6] = in vivo; conditions: mouse, in vivo
Method: (§1) Acute toxicity was studied on male and female albino mice (19-26 g), 10 animals in a group. The substances were administered as a 10% solution orally or i.v. (with 0.004 ml/sec rate).

[7] = tested on: albino mice; experiment: in vivo; conditions: in words
Method: as §1

[8] = tested on: ischemia- and reperfusion-induced heart rhythm disturbances in rats; experiment: ischemia- and reperfusion-induced heart rhythm disturbances in rats, therapeutic regimen (Table 6); format: in vivo, Wistar rats; conditions: for Lethality (number of animals from total numb) / ST rise during occlusion / Ventricular fibrillation (number of animals from total numb) / Ventricular tachycardy (number of animals from total numb): 50 mg/kg total (25 injection + 25 infusion); for efficacy against ischaemia-reperfusion-induced damage and rhythm disturbances: therapeutic regimen, in words
Method: (§2) The experiments were carried out on Wistar rats (260-330 g). During phenobarbital anesthesia (50 mg/kg, i.p.) and artificial respiration their chest was opened and the left coronary artery was ligated with 6.0 Silk Ethicon thread which was pulled out through plastic pipe. Occlusion was made by pressing the plastic pipe to the heart surface, and ischaemia stage was controlled by ECG, fixing ischaemia-induced changes in ECG. Solutions of the substances or saline were i.v. injected in two regimens:
2) therapeutically--1.5 min after occlusion by administering 25 mg/kg in injection and 25 mg/kg infusively. Infusion was stopped 2 min after reperfusion.

[9] = tested on: ischemia and reperfusion-induced heart rhythm disturbances in rats; experiment: ischemia and reperfusion-induced heart rhythm disturbances in rats, prophylactic regimen (Table 7); format: in vivo, Wistar rats; conditions: for Lethality (number of animals from total numb) / ST rise during occlusion / Ventricular fibrillation (number of animals from total numb) / Ventricular tachycardy (number of animals from total numb): 50 mg/kg (proph.), i.v. 30 min before occlusion; for efficacy against ischaemia-reperfusion-induced damage and rhythm disturbances: prophylactic regimen, in words
Method: as §2
1) prophylactically--30 min before occlusion by administration of 50 mg/kg,

[10] = cited from earlier work; for toxic effects: W. Linneweh, 1929
[11] = literature statements; cited from earlier work
[12] = tested on: carnitine biosynthesis; conditions: cited from earlier work; for mechanism of action: literature

CC(=O)OCC[N+](C)(C)C [Ach, acetyl choline]
Blood pressure changes ([1]; 0.001 mg/kg i.v.): -35% | Heart rate changes ([1]; 0.001 mg/kg i.v.): -20%

CCOC(=O)Nc1ccc2c(c1)N(C(=O)CCN1CCOCC1)c1ccccc1S2 [Etmozine]
Protection against the control ([2]; 5 mg/kg p.o.): 20% | Survive (number of animals) ([2]; 5 mg/kg p.o.): 3 | Protection against the control ([2]; 10 mg/kg p.o.): 40% | Survive (number of animals) ([2]; 10 mg/kg p.o.): 5 | Protection against the control ([2]; 30 mg/kg p.o.): 40% | Survive (number of animals) ([2]; 30 mg/kg p.o.): 5 | Protection against the control ([3]; 3 mg/kg p.o.): 20% | Survive (number of animals) ([3]; 3 mg/kg p.o.): 1 | Survive (percent) ([3]; 3 mg/kg p.o.): 10% | Protection against the control ([3]; 10 mg/kg p.o.): 46% | Survive (number of animals) ([3]; 10 mg/kg p.o.): 2 | Survive (percent) ([3]; 10 mg/kg p.o.): 40%

C[N+](C)(C)CCCC(=O)[O-] [GBB, γ-butyrobetaine]
Blood flow rate changes ([1]; 5.0 mg/kg i.v.): 6% | Blood flow rate changes ([1]; 10.0 mg/kg i.v.): 12% | Perfusion pressure, final data, max ([4]; 0.3 μM): 124 mm Hg | Perfusion pressure, final data, min ([4]; 0.3 μM): 76 mm Hg | Perfusion pressure, final data, max ([4]; 1.0 μM): 125 mm Hg | Perfusion pressure, final data, min ([4]; 1.0 μM): 80 mm Hg | Perfusion pressure, final data, max ([4]; 2.0 μM): 125 mm Hg | Perfusion pressure, final data, min ([4]; 2.0 μM): 78 mm Hg | potency on adrenaline-induced vessel spasms relative to 3-(2,2,2-trimethylhydrazinium)propionate ([4]; isolated rabbit ear): 2-3 times | Perfusion pressure, final data, max ([5]; 0.3 μM): 168 mm Hg | Perfusion pressure, final data, min ([5]; 0.3 μM): 105 mm Hg | Perfusion pressure, final data, max ([5]; 1.0 μM): 165 mm Hg | Perfusion pressure, final data, min ([5]; 1.0 μM): 100 mm Hg | Perfusion pressure, final data, max ([5]; 2.0 μM): 163 mm Hg | Perfusion pressure, final data, min ([5]; 2.0 μM): 100 mm Hg | Protection against the control ([2]; 8 mg/kg p.o.): 10% | Survive (number of animals) ([2]; 8 mg/kg p.o.): 2 | Protection against the control ([2]; 20 mg/kg p.o.): 0% | Survive (number of animals) ([2]; 20 mg/kg p.o.): 1 | Protection against the control ([2]; 30 mg/kg p.o.): 20% | Survive (number of animals) ([2]; 30 mg/kg p.o.): 3 | Protection against the control ([2]; 50 mg/kg p.o.): 40% | Survive (number of animals) ([2]; 50 mg/kg p.o.): 5 | Protection against the control ([2]; 100 mg/kg p.o.): 30% | Survive (number of animals) ([2]; 100 mg/kg p.o.): 4 | protection from lethal arrhythmia (cases) ([2]; 50 and 100 mg/kg of γ-butyrobetaine): 30-40% | Protection against the control ([3]; 10 mg/kg p.o.): 20% | Survive (number of animals) ([3]; 10 mg/kg p.o.): 1 | Survive (percent) ([3]; 10 mg/kg p.o.): 20% | Protection against the control ([3]; 30 mg/kg p.o.): 32% | Survive (number of animals) ([3]; 30 mg/kg p.o.): 1 | Survive (percent) ([3]; 30 mg/kg p.o.): 20% | LD50 ([6]; iv): 1860 mg/kg | LD50 ([6]; po): > 4500 mg/kg | acute toxicity [7]: practically nontoxic agent | Lethality (number of animals from total numb) [8]: 1/10 | ST rise during occlusion [8]: 0.23 ± 0.05 mV | Ventricular fibrillation (number of animals from total numb) [8]: 4/10 | Ventricular tachycardy (number of animals from total numb) [8]: 7/10 | efficacy against ischaemia-reperfusion-induced damage and rhythm disturbances [8]: effectively protects myocardium from ischaemia-reperfusion-induced myocardium damages and ventricular fibrillations which are partially resumed after infusion termination | Lethality (number of animals from total numb) [9]: 3/8 | ST rise during occlusion [9]: 0.36 mV | Ventricular fibrillation (number of animals from total numb) [9]: 6/8 | Ventricular tachycardy (number of animals from total numb) [9]: 8/8 | efficacy against ischaemia-reperfusion-induced damage and rhythm disturbances [9]: ineffective | toxic effects ([10]; listed as γ-Butyrobetaine): accelerates respiration, causes salivation and lacrimation, pupil dilation, vasoconstriction and heart stop in diastole | toxic effects ([10]; listed as γ-butyrobetaine): heart stop in diastole | LD50 ([10]; s.c.): > 7000 mg/kg | pharmacological action [11]: pharmacologically inert substance | level of carnitine biosynthesis in the organism ([12]; background statement): increases the level of carnitine biosynthesis in the organism

C[N+](C)(C)NCCC(=O)[O-] [M, 3-(2,2,2-Trimethylhydrazinium)propionate]
Blood flow rate changes ([1]; 5.0 mg/kg i.v.): +5% | Blood flow rate changes ([1]; 10.0 mg/kg i.v.): +8% | Perfusion pressure, final data, max ([4]; 0.3 μM): 125 mm Hg | Perfusion pressure, final data, min ([4]; 0.3 μM): 80 mm Hg | Perfusion pressure, final data, max ([4]; 1.0 μM): 123 mm Hg | Perfusion pressure, final data, min ([4]; 1.0 μM): 77 mm Hg | Perfusion pressure, final data, max ([4]; 2.0 μM): 126 mm Hg | Perfusion pressure, final data, min ([4]; 2.0 μM): 80 mm Hg | Perfusion pressure, final data, max ([5]; 0.3 μM): 165 mm Hg | Perfusion pressure, final data, min ([5]; 0.3 μM): 102 mm Hg | Perfusion pressure, final data, max ([5]; 1.0 μM): 163 mm Hg | Perfusion pressure, final data, min ([5]; 1.0 μM): 100 mm Hg | Perfusion pressure, final data, max ([5]; 2.0 μM): 165 mm Hg | Perfusion pressure, final data, min ([5]; 2.0 μM): 100 mm Hg | Protection against the control ([2]; 8 mg/kg p.o.): 10% | Survive (number of animals) ([2]; 8 mg/kg p.o.): 2 | Protection against the control ([2]; 20 mg/kg p.o.): 20% | Survive (number of animals) ([2]; 20 mg/kg p.o.): 3 | Protection against the control ([2]; 30 mg/kg p.o.): 30% | Survive (number of animals) ([2]; 30 mg/kg p.o.): 4 | Protection against the control ([2]; 50 mg/kg p.o.): 30% | Survive (number of animals) ([2]; 50 mg/kg p.o.): 4 | Protection against the control ([2]; 100 mg/kg p.o.): 40% | Survive (number of animals) ([2]; 100 mg/kg p.o.): 5 | Protection against the control ([3]; 10 mg/kg p.o.): 15% | Survive (number of animals) ([3]; 10 mg/kg p.o.): 1 | Survive (percent) ([3]; 10 mg/kg p.o.): 20% | Protection against the control ([3]; 20 mg/kg p.o.): 23% | Survive (number of animals) ([3]; 20 mg/kg p.o.): 1 | Survive (percent) ([3]; 20 mg/kg p.o.): 20% | Protection against the control ([3]; 30 mg/kg p.o.): 25% | Survive (number of animals) ([3]; 30 mg/kg p.o.): 1 | Survive (percent) ([3]; 30 mg/kg p.o.): 20% | Lethality (number of animals from total numb) [8]: 3/10 | ST rise during occlusion [8]: 0.4 ± 0.1 mV | Ventricular fibrillation (number of animals from total numb) [8]: 8/10 | Ventricular tachycardy (number of animals from total numb) [8]: 10/10 | efficacy against ischaemia-reperfusion-induced damage and rhythm disturbances [8]: relatively low | Lethality (number of animals from total numb) [9]: 2/8 | ST rise during occlusion [9]: 0.31 mV | Ventricular fibrillation (number of animals from total numb) [9]: 5/8 | Ventricular tachycardy (number of animals from total numb) [9]: 7/8 | efficacy against ischaemia-reperfusion-induced damage and rhythm disturbances [9]: markedly better in the case of prophylaxis, i.e., 30 min. before occlusion when it protects myocardium from ischemia increase during occlusion | mechanism of action [12]: limitation of carnitine biosynthesis rate and the related long-chain fatty acid Transport limitation through mitochondria membranes | mechanism of action ([12]; listed as 3-(2,2,2-trimethylhydrazinium)-propionate (THP)): γ-butyrobetaine hydroxylase inhibitor

C=C[C@H]1C[N@@]2CC[C@H]1C[C@@H]2[C@@H](O)c1ccnc2ccc(OC)cc12 [Quinidine]
Protection against the control ([2]; 10 mg/kg p.o.): 10% | Survive (number of animals) ([2]; 10 mg/kg p.o.): 2 | Protection against the control ([2]; 30 mg/kg p.o.): 30% | Survive (number of animals) ([2]; 30 mg/kg p.o.): 4 | Protection against the control ([2]; 50 mg/kg p.o.): 50% | Survive (number of animals) ([2]; 50 mg/kg p.o.): 6 | Protection against the control ([3]; 3 mg/kg p.o.): 25% | Survive (number of animals) ([3]; 3 mg/kg p.o.): 1 | Survive (percent) ([3]; 3 mg/kg p.o.): 20% | Protection against the control ([3]; 10 mg/kg p.o.): 46% | Survive (number of animals) ([3]; 10 mg/kg p.o.): 2 | Survive (percent) ([3]; 10 mg/kg p.o.): 40%

COC(=O)CCC[N+](C)(C)C [methyl ester]
pharmacological action [11]: possesses cholinergic properties
